Measurements taken from ChEMBL document CHEMBL1156043, “Selective inactivation of triosephosphate isomerase from Trypanosoma cruzi by brevifolin carboxylate derivatives isolated from Geranium bellum Rose” (Bioorg Med Chem Lett, 2009).

How the values were obtained:
[1] = target: T1, Triosephosphate isomerase, glycosomal (Trypanosoma cruzi, UniProt P52270); test: Inhibition of Trypanosoma cruzi recombinant triosephosphate isomerase after 2 hrs; details: read-out: I50
[2] = target: Triosephosphate isomerase (Homo sapiens, UniProt P60174); test: Inhibition of human recombinant triosephosphate isomerase after 2 hrs; details: read-out: I50
Triosephosphate isomerase, sequence (P60174 whole entry): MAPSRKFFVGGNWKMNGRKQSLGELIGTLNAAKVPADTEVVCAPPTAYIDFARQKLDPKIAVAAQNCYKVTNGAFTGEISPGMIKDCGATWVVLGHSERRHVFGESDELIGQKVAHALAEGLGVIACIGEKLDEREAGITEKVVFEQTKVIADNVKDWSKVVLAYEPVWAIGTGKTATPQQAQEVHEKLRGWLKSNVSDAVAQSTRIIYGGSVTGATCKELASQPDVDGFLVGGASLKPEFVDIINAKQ

[3] = target: T1, Triosephosphate isomerase, glycosomal; test: Binding affinity to Trypanosoma cruzi recombinant triosephosphate isomerase; details: read-out: Kd(app)

T1 sequence (P52270 whole entry): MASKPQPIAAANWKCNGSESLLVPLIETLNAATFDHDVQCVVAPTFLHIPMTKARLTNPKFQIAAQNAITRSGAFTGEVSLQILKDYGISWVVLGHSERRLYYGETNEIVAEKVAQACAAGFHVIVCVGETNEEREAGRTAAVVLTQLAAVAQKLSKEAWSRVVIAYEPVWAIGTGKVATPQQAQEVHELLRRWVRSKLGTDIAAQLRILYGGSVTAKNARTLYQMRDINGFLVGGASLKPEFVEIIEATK

IC50 [1] [µM] | IC50 [2] [µM] | Kd [3] [µM] | SMILES
8 | > 1000 |  | CCOC(=O)C1CC(=O)c2oc(=O)c3cc(O)c(O)c(O)c3c21 (centres undefined) [ETHYLBREVIFOLIN CARBOXYLATE]
6.5 | > 1000 | 10.4 | COC(=O)C1CC(=O)c2oc(=O)c3cc(O)c(O)c(O)c3c21 (centres undefined) [METHYLBREVIFOLIN CARBOXYLATE]
14 | > 1000 |  | CCCCOC(=O)C1CC(=O)c2oc(=O)c3cc(O)c(O)c(O)c3c21 (centres undefined) [BUTYLBREVIFOLIN CARBOXYLATE]
> 1000 | > 1000 |  | COC(=O)C1CC(=O)c2oc(=O)c3cc(OC)c(OC)c(OC)c3c21 (centres undefined)
